{"source": "paper PMC8007387", "about": "(Clinical Pharmacokinetics, 2021)", "key": {"[1]": {"experiment": "clinical", "details": "both, human, in vivo"}, "[2]": {"experiment": "clinical", "details": "male, human, in vivo"}, "[3]": {"details": "in vivo, cited from earlier work"}, "[4]": {"test_system": "QTcF interval", "details": "in vivo"}, "[5]": {"details": "male, human, in vivo"}, "[6]": {"details": "in vivo; cited from earlier work"}, "[7]": {"test_system": "OATP1B3", "details": "cited from earlier work"}, "[8]": {"details": "monkey, in vivo"}, "[9]": {"test_system": "aryl hydrocarbon receptor", "details": "cited from earlier work"}, "[10]": {"experiment": "in vivo", "details": "rhesus monkey, iv"}, "[11]": {"details": "human; cited from earlier work"}, "[12]": {"test_system": "cathepsin A", "details": "cited from earlier work"}, "[13]": {"details": "both, human, in vivo"}, "[14]": {"test_system": "CYP2D6", "details": "recombinant enzyme; cited from earlier work"}, "[15]": {"test_system": "OATP1B1", "details": "cited from earlier work"}, "[16]": {"test_system": "OATP1B1", "details": "cited from earlier work", "remark": "listed apart in the source"}, "[17]": {"test_system": "pregnane X receptor", "details": "cited from earlier work"}, "[18]": {"test_system": "cytochrome P450 (CYP) 3A", "details": "cited from earlier work"}, "[19]": {"details": "human, in vivo"}, "[20]": {"test_system": "CYP2C8", "details": "recombinant enzyme; cited from earlier work"}, "[21]": {"details": "Sprague-Dawley, rat, in vivo, iv, 10 mg/kg"}, "[22]": {"test_system": "CYP3A4", "details": "cited from earlier work"}, "[23]": {"test_system": "CES-1, CatA and CYP3A", "parameters": "species or system human"}, "[24]": {"test_system": "P-glycoprotein", "details": "cited from earlier work"}, "[25]": {"test_system": "MATE1", "details": "cited from earlier work"}, "[26]": {"test_system": "carboxylesterase 1", "details": "cited from earlier work"}, "[27]": {"test_system": "MERS-CoV", "details": "rhesus monkey, in vivo; cited from earlier work"}, "[28]": {"test_system": "CYP3A", "details": "recombinant enzyme; cited from earlier work"}, "[29]": {"details": "human, plasma; cited from earlier work"}}, "note": "Like-named read-outs stand apart in the source and are kept apart here."}
{"smiles": "N#C[C@@]1(c2ccc3c(N)ncnn23)O[C@H](CO)[C@@H](O)[C@H]1O", "note": "[GS-441524]", "values": [{"measurement": "AUC", "setting": "[1]; 100 mg", "value": 2.23, "unit": "µg·h/mL"}, {"measurement": "Cmax", "setting": "[1]; 100 mg", "value": 0.145, "unit": "µg/mL"}, {"measurement": "Tmax", "setting": "[1]; 100 mg", "value": 1.51, "unit": "h"}, {"measurement": "half-life", "setting": "[1]; 100 mg, t1/2, median (Q1, Q3)", "value": 27.4, "unit": "h"}, {"measurement": "AUC(0-t)", "setting": "[1]; 200 mg", "value": 2.19, "unit": "µg·h/mL"}, {"measurement": "Cmax", "setting": "[1]; 200 mg", "value": 0.143, "unit": "µg/mL"}, {"measurement": "Tmax", "setting": "[1]; 200 mg", "value": 2, "unit": "h"}, {"measurement": "CL renal", "setting": "[2]; estimated secretory clearance CLr,s", "value": 31, "unit": "mL/min"}, {"measurement": "Tmax", "setting": "[2]; iv", "value": 3, "unit": "h"}, {"measurement": "CL renal", "setting": "[2]; renal clearance CLr", "value": 151, "unit": "mL/min"}, {"measurement": "t1/2", "setting": "[3]; 150 mg", "value": "~ 24.5 h"}, {"measurement": "dose dependence of PK", "setting": "[3]; iv", "value": "linear pharmacokinetics"}, {"measurement": "accumulation in plasma", "setting": "[3]", "value": "approximately 1.9 fold"}, {"measurement": "steady state reached by day", "setting": "[3]", "value": 4, "unit": "days"}, {"measurement": "steady state reached on day", "setting": "[3]", "value": 4, "unit": "days"}, {"measurement": "QTcF interval prolongation", "setting": "[4]", "value": "do not cause QTcF interval prolongation"}, {"measurement": "secretory clearance as share of CLr", "setting": "[5]", "value": "21 % of CLr"}, {"measurement": "dose recovered in urine as this analyte", "setting": "[6]", "value": 48.6, "unit": "%"}]}
{"smiles": "CCC(CC)COC(=O)[C@H](C)N[P@](=O)(OC[C@H]1O[C@@](C#N)(c2ccc3c(N)ncnn23)[C@H](O)[C@@H]1O)Oc1ccccc1", "note": "[RDV, 2-ethylbutyl N-{(S)-[2-C(4-aminopyrrolo[2,1-f][1,2,4]triazin-7-yl)-2-5-anhydro-d-altrononitril-6-O-yl]phenoxyphosphoryl}-L-alaninate]", "values": [{"measurement": "inhibition of OATP1B3", "setting": "[7]", "value": "weak inhibitor"}, {"measurement": "administered radioactivity recovered in feces", "setting": "[8]", "value": 25.6, "unit": "%"}, {"measurement": "administered radioactivity recovered in urine", "setting": "[8]", "value": 33.6, "unit": "%"}, {"measurement": "induction of enzymes or transporters via aryl hydrocarbon receptor", "setting": "[9]", "value": "no potential for induction"}, {"measurement": "AUC(0-t)", "setting": "[10]", "value": 1.43, "unit": "µg·h/mL"}, {"measurement": "Cmax", "setting": "[10]", "value": 3.35, "unit": "µg/mL"}, {"measurement": "mean whole blood/plasma concentration ratio", "setting": "[11]", "value": 0.76}, {"measurement": "contribution to total metabolism", "setting": "[12]", "value": 10, "unit": "%"}, {"measurement": "median time of occurrence of maximum observed plasma concentration", "setting": "[13]", "value": "~ 0.7 h"}, {"measurement": "metabolism by CYP2D6", "setting": "[14]", "value": "can be metabolized"}, {"measurement": "substrate for OATP1B1", "setting": "[15]", "value": "substrate"}, {"measurement": "inhibition of OATP1B1", "setting": "[16]", "value": "weak inhibitor"}, {"measurement": "induction of enzymes or transporters via pregnane X receptor", "setting": "[17]", "value": "no potential for induction"}, {"measurement": "CYP-dependent hepatic metabolism, share of total hepatic clearance", "setting": "[18]", "value": 10, "unit": "%"}, {"measurement": "contribution to total metabolism", "setting": "[18]", "value": 10, "unit": "%"}, {"measurement": "graded ALT abnormalities", "setting": "[19]; both", "value": "eight participants with Grade 1 and 1 subject with Grade 2 ALT abnormalities"}, {"measurement": "infusion-site phlebitis, participants", "setting": "[19]; both", "value": 40, "unit": "%"}, {"measurement": "serious AEs, Grade 3 or 4 AEs, deaths", "setting": "[19]; both", "value": "no serious AEs, Grade 3 or 4 AEs, or deaths"}, {"measurement": "graded ALT abnormalities", "setting": "[19]", "value": "no graded alanine aminotransferase (ALT) abnormalities"}, {"measurement": "overall tolerability", "setting": "[19]", "value": "generally well tolerated"}, {"measurement": "transient Grade 1 AST abnormalities", "setting": "[19]", "value": "four of the nine participants with graded ALT abnormalities"}, {"measurement": "metabolism by CYP2C8", "setting": "[20]", "value": "can be metabolized"}, {"measurement": "administered radioactivity excreted in feces", "setting": "[21]", "value": 27.8, "unit": "%"}, {"measurement": "administered radioactivity excreted in urine", "setting": "[21]", "value": 63.0, "unit": "%"}, {"measurement": "time within which most of the radioactivity was excreted", "setting": "[21]", "value": "≤ 48", "unit": "h"}, {"measurement": "AUC", "setting": "[1]; 100 mg", "value": 1.59, "unit": "µg·h/mL"}, {"measurement": "Cmax", "setting": "[1]; 100 mg", "value": 2.23, "unit": "µg/mL"}, {"measurement": "Tmax", "setting": "[1]; 100 mg", "value": 0.68, "unit": "h"}, {"measurement": "clearance", "setting": "[1]; 100 mg, CLss, mean (%CV)", "value": "~1080", "unit": "mL/min"}, {"measurement": "half-life", "setting": "[1]; 100 mg, t1/2, median (Q1, Q3)", "value": 0.96, "unit": "h"}, {"measurement": "AUC(0-t)", "setting": "[1]; 200 mg", "value": 2.86, "unit": "µg·h/mL"}, {"measurement": "Cmax", "setting": "[1]; 200 mg", "value": 4.38, "unit": "µg/mL"}, {"measurement": "Tmax", "setting": "[1]; 200 mg", "value": 0.67, "unit": "h"}, {"measurement": "half-life", "setting": "[1]; 200 mg, t1/2, median (Q1, Q3)", "value": 0.9, "unit": "h"}, {"measurement": "AUC", "setting": "[1]; iv", "value": 1.59, "unit": "µg·h/mL"}, {"measurement": "half-life", "setting": "[1]; median t1/2", "value": "~1", "unit": "h"}, {"measurement": "clearance", "setting": "[2]", "value": 1170, "unit": "mL/min"}, {"measurement": "half-life", "setting": "[2]; iv, 150 mg", "value": "~1", "unit": "h"}, {"measurement": "CL renal", "setting": "[2]; renal clearance CLr", "value": 129, "unit": "mL/min"}, {"measurement": "inhibition of CYP3A4", "setting": "[22]", "value": "weak inhibitor"}, {"measurement": "accumulation", "setting": "[3]", "value": "lack of accumulation"}, {"measurement": "upper bound of two-sided 90% CI of predicted mean ΔΔQTcF", "setting": "[4]; human", "value": "< 10", "unit": "ms"}, {"measurement": "QTcF interval prolongation", "setting": "[4]", "value": "do not cause QTcF interval prolongation"}, {"measurement": "extraction ratio", "setting": "[23]", "value": "0.6–0.8"}, {"measurement": "substrate for P-glycoprotein", "setting": "[24]", "value": "substrate"}, {"measurement": "inhibition of MATE1", "setting": "[25]", "value": "weak inhibitor"}, {"measurement": "blood-to-plasma ratio of [14C]-radioactivity", "setting": "[5]", "value": 0.68}, {"measurement": "mean total recovery of the radioactive dose", "setting": "[5]", "value": "> 92", "unit": "%"}, {"measurement": "radioactive dose recovered in feces", "setting": "[5]", "value": "~18", "unit": "%"}, {"measurement": "radioactive dose recovered in urine", "setting": "[5]", "value": "approximately 74%"}, {"measurement": "contribution to total metabolism", "setting": "[26]", "value": 80, "unit": "%"}, {"measurement": "dose recovered in urine as this analyte", "setting": "[6]", "value": 10.3, "unit": "%"}, {"measurement": "lung viral loads lower in each lung lobe", "setting": "[27]", "value": "2.5–4 logs"}, {"measurement": "lung viral loads versus vehicle-treated animals", "setting": "[27]", "value": "lower when all lung lobes were combined"}, {"measurement": "prophylactic efficacy versus vehicle-treated animals", "setting": "[27]", "value": "significant reduction in clinical scores, clinical signs of respiratory disease, and viral RNA levels"}, {"measurement": "metabolism by CYP3A", "setting": "[28]", "value": "can be metabolized"}, {"measurement": "protein binding (bound)", "setting": "[29]", "value": "88–93.6%"}]}
